# According to a melting point compilation (Tetko et al.; mined from patent text by program, amines drawn as free bases though some values may be those of a salt):
row,SMILES,melting point [°C]
1,O=S(=O)(Nc1cccc(CCOCc2cccc(-c3ccccc3)n2)c1)C(F)(F)F,75 to 77
2,CC(CCNC(=O)C(C#N)=Cc1ccc(O)c(O)c1)NC(=O)C(C#N)=Cc1ccc(O)c(O)c1 (stereo not drawn),281
3,CCOc1cscc1C=O,42 to 45
4,COc1ccc(C(=O)C=CN(C)C)cc1,82 to 85
5,CCCC1(OC(C)=O)CCC2C3CCC4CC(=O)CC(C)C4(C)C3CCC21C (stereo not drawn),128 to 129
6,O=C(O)c1cc(Cl)c(Cl)c(S(=O)(=O)Cl)c1,203
7,CC(C)(CC(=O)Oc1ccccc1C(C)(C)C)NS(=O)(=O)C(F)(F)F,69 to 71
8,CS(=O)(=O)Cc1cnc2ccccc2c1O,280 to 282
9,N#CC(C(=O)Nc1ccccc1)C(=O)c1nn(-c2ccccc2)c2c1COc1c(CN3CCOCC3)cc(F)cc1-2 (stereo not drawn),249 to 253
10,COc1cnc2sc(SCc3ccccc3)nn2c1=O,145 to 147
11,CCOc1ncc(C(=O)O)c2c(N)cccc12,159 to 165
12,CCN(CC)C(=O)c1cccnc1OC,83
13,Clc1cc(CCc2ccccn2)c2oc(-c3ccsc3)nc2c1,126 to 127
14,CCCc1c2c(c(OC)c3c(=O)cc(C(=O)O)oc13)CCCC2,228 to 229
15,CCn1c(=O)n(O)c(=O)c2cc(F)c(N3CCNCC3)cc21,206 to 208
16,C=CCSc1nnc(OC)c(C)c1C,51 to 53

row,SMILES,melting point [°C]
1,NC(Cc1ccccc1)c1ccc(Cl)cc1 (stereo not drawn),35 to 36
2,CCc1ccc(-c2ccc(CCc3ccc(C(F)(F)F)cc3)cc2)cc1,128
3,CC(Oc1ccc2oc3cc(Cl)ccc3c2c1)C(=O)O (stereo not drawn),170 to 172
4,CCN(CC)C(=O)c1nc(-c2ccccc2)c2ccccc2n1,101
5,O[C@@H](COc1cccc(-c2noc3ccsc23)c1)CN1CCN(c2cccc(Cl)c2)CC1,118 to 120
6,CCCS(=O)(=O)NCC1CC2C=CC1C2 (stereo not drawn),51 to 52
7,CCOC(=O)CC(=O)c1cc(F)c(OC)nc1Nc1ccc(F)cc1F,148 to 149
8,CCOC(=O)NC(=N)c1ccc(N2CCN(c3ccc(CCC(=O)OC)cc3)S2(=O)=O)cc1,> 275
9,CCCCCCCCCc1ccc(C(Sc2cccc(NC(=O)CC(=O)O)c2)C(=O)CCCC(=O)O)cc1 (stereo not drawn),88 to 91
10,CCOC12CCC(=O)C3(C)Oc4c(OC)ccc5c4C31CCN(CCc1ccccc1)C2C5 (stereo not drawn),86 to 89
11,N#CC1Sc2ccccc2N1C(=O)c1ccc(F)cc1 (stereo not drawn),150 to 151
12,Nc1c(F)cc(F)c(-n2cc(C(=O)O)c(=O)c3cc(F)c(N4CC[C@H](N)C4)nc32)c1F,273 to 277
13,CCn1c(=O)sc2cc(N3C[C@H](C(N)=O)OC3=O)ccc21,211 to 212
14,O[C@@H]1CCCC[C@H]1Nc1nc(Cl)ncc1Cl (relative stereo),139 to 142
15,COC(=O)c1ccc(Nc2nc(Nc3ccc(C(=O)OC)cc3)nc(Nc3ccc(C(=O)OCCOc4ccc(C(C)(C)CC(C)(C)C)cc4)cc3)n2)cc1,157 to 160

# Next, values leading:
row,melting point [°C],SMILES
1,132 to 134,O=C(CCl)OCN1C(=O)CN(CCN2CC(=O)N(COC(=O)CCl)C(=O)C2)CC1=O
2,80.2 to 102,CCCCCN(CCC12CC3CC(CC(C3)C1)C2)C(=O)NCCCc1ccnc2ccccc12
3,148,C#CCn1ncc(=O)[nH]c1=O
4,121 to 122,N#Cc1cccc(CN2CCc3ccc(C(=O)CCCC4CCN(Cc5ccccc5Cl)CC4)cc3CC2)c1
5,235 to 236,CCn1c(=O)c2c(nc(/C=C/c3cc(C)c(OC)cc3C)n2C)n(CC)c1=O
6,120 to 122,Cc1oc(-c2ccccc2)nc1CNS(=O)(=O)c1ccc(CC2SC(=O)NC2=O)cc1 (stereo not drawn)
7,323 to 326,Cc1nc2c3c(c(C(=O)O)cc2n1C)CCC(c1ccccc1)O3 (stereo not drawn)
8,118 to 120,CCN1C(=O)C(C)(C)C(=O)N(C)c2cc(CN(CCc3cccnc3)Cc3scnc3C)ccc21
9,230 to 232,COc1ccc(C(=O)Nc2ccncc2)c2c3ccccc3n(Cc3ccc(F)cc3)c12
10,169 to 171,NNc1ccc(S(N)(=O)=O)cc1
11,226,CCCC1=C([N+](=O)[O-])C(c2cccc3ccccc23)c2c[nH]nc2N1 (stereo not drawn)
12,196 to 197,CN1C(=O)CC[C@]2(C)c3ccc(Sc4nccc5sccc45)cc3CC[C@@H]12
13,181 to 182,COc1cc2nc(N3CCc4cc(OCc5ccccc5)c(OC)cc4C3)cc(N)c2cc1OC
14,149 to 150,CCn1nc(Cc2ccc(NC(=O)/C=C/c3cnn(C)c3-c3ccc(F)cc3)cc2)oc1=O
15,100,Cc1cc(-n2ccnc2)c2cccc(OCc3c(Cl)ccc(S(=O)(=O)N4CCC[C@H]4C(=O)NCCN4CCOCC4)c3Cl)c2n1
16,201 to 202,Cc1ccc(-c2ccc3c(c2)C=C(C(=O)Nc2ccc(CCN4CCCCC4)cc2)CCO3)cc1
17,38.5 to 39,CC(C)[C@@H]1C[C@@H]([C@H](CC2CCCCC2)N=[N+]=[N-])OC1=O
